Assay [1] deals with T1, HG20 (Homo sapiens, UniProt O75899).
For assay [2], the target named is T1, HG20. The source holds these as a separate data set.

T1 sequence (O75899 52-941): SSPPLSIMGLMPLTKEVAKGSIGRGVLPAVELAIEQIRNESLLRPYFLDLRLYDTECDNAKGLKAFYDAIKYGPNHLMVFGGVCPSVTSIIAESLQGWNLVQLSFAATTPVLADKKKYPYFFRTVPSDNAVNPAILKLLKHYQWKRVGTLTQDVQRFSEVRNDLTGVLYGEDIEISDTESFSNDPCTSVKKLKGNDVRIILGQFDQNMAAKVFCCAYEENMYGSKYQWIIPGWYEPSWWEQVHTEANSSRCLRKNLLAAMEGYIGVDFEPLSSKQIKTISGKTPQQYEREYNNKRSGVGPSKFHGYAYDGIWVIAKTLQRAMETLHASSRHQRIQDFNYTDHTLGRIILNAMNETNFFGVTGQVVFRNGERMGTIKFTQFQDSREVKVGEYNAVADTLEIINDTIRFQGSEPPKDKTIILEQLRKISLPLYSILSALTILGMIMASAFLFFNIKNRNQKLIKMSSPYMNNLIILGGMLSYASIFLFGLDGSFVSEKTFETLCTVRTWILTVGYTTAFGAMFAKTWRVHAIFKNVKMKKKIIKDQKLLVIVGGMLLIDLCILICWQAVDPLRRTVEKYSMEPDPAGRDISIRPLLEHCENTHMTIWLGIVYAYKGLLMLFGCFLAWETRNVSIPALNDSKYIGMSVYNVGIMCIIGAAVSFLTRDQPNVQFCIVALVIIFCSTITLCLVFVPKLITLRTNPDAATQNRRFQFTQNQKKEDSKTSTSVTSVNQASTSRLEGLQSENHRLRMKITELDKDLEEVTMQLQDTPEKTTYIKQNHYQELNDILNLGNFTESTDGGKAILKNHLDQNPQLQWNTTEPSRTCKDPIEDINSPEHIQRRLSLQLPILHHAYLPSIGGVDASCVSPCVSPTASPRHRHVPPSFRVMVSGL

`N[C@@H](CCC(=O)O)C(=O)O` [L-Glutamate, (L)-glutamic acid]: the “activity in Xenopus oocyte functional assay” value in assay [1] is “no activity”. Also, in assay [2], the “activity in Xenopus melanophore functional assay” value is given as “no activity” and the “pigment aggregation or dispersion response” value is listed as “no pigment aggregation or dispersion response”.

As for `NC/C=C\C(=O)O` [cis-4-aminocrotonic acid], the “pigment aggregation or dispersion response” value in assay [2] is “no pigment aggregation or dispersion response”.

As to `O=S(=O)(O)C1CCNCC1` [piperidine-4-sulfonic acid], the “pigment aggregation or dispersion response” value in assay [2] is “no pigment aggregation or dispersion response”.

Consider (−)Baclofen, for which, in assay [1], the “activity in Xenopus oocyte functional assay” value was “no activity”. Besides, in assay [2], the “activity in Xenopus melanophore functional assay” value is “no activity” and the “pigment aggregation or dispersion response” value was “no pigment aggregation or dispersion response”.

These data come from US20050130203A1, “Novel GABAB receptor DNA sequences” (Board of Regents, The University of Texas System, priority 1998, published 2005).
